# Experimental data: patent US10143696B2, “Methods and compositions for decreasing gastric emptying” (priority 2015, dated 2018)
# Like-named read-outs stand apart in the source and are kept apart here.
# Legend:
# CD1 mice = experiment: Gastric emptying of a test meal in mice; assay type: in vivo
# Protocol: (§1) Rats were fasted overnight (16-18 hours) with free access to water. The next morning, compound was administered and animals were individually housed in bedding-free cages with pre-weighed food available ad libitum and access to water for 2 hours. The water and food were then removed and the remaining food was re-weighed. Gastric emptying of the ingested meal was assessed 4 hours later. Animals were euthanized by CO2 inhalation followed by thoracotomy. The abdominal cavity was opened, the pylorus and cardia were clamped and the stomach was removed. The excised stomach was weighed and then opened along the greater curvature, rinsed with tap water, lightly dried and re-weighed. The amount of food in the stomach (grams) was estimated based on the difference between the total weight of the stomach plus its contents and the weight of the stomach after the contents were removed. The meal ingested (food intake) was determined by the difference between pre- and post-feeding weight at the end of the 2 hour period. Gastric emptying during the 4 hour experiment is represented as: Gastric emptying=[1−(gastric content/food intake)]×100. Gastric Secretion
# Male, CD1 mice (weighing between 30-36 g each and 6 mice per test group) were fasted overnight (19 hours). The mice then were subcutaneously administered 3 mg/kg of Compound A with a 25% HPBCD vehicle, a 25% HPBCD vehicle alone, orally administered 100 mg/kg of Compound A with a 0.5% MC vehicle, or a 0.5% MC vehicle alone. The mice were then placed in individual, bedding-free cages and allowed ad libitium access to pre-weighed food and water for two hours. The food and water were then removed and the food was reweighed. Gastric emptying was assessed four hours later by euthanizing the mice and analyzing the stomach and stomach contents. Data were analyzed using an unpaired t-test where *P<0.05 and ***P<0.001 and represented as the means+S.E.M. % Gastric Emptying in 4 hours=(1−(gastric content/food intake)×100).
# Sprague-Dawley rats [1] = experiment: Repeated oral administration: gastric emptying, food intake, body weight; assay type: in vivo, rat
# Protocol: as §1
# Male, Sprague-Dawley rats (weighing between 240-283 g each and 5-6 rats per test group) were orally dosed with 3 mg/kg, 10 mg/kg or 30 mg/kg of Compound A with a 0.5% MC vehicle or with a 0.5% MC vehicle alone once a day for five days and were then fasted overnight. The rats were then dosed again on the sixth day and placed in individual, bedding-free cages and allowed ad libitium access to pre-weighed food and water for two hours. The food and water were then removed and the food was reweighed. Data were analyzed using a one-way ANOVA followed by a Dunnett's Multiple Comparison Test, where *P<0.05 as compared to the appropriate vehicle. Data are represented as the means+S.E.M. % Gastric Emptying in 4 hours=(1−(gastric content/food intake))×100.
# Sprague-Dawley rats [2] = experiment: Gastric secretion volume and pH in fasted rats; assay type: in vivo, rat
# Protocol: Gastric section and acidity was assessed by direct measurement in fasted animals (Melo et al. (2006). “Effect of acid secretion blockade on acute gastric mucosal lesions induced by Tityus serrulatus scorpion toxin in anaesthetized rats.” Toxicon 48(5): 543-549). Rats were fasted with free access to water for 24 hours on wire inserts without bedding. The next day, all rats were dosed orally with 0.5% MC (5 ml/kg) to remove any residual stomach contents and test compound or vehicle was administered. The animals were water deprived for 3 hours, anesthetized with isoflurane (5% in O2), and a laparotomy was conducted followed by tight ligation of the pylorus and cardia. After ligation, the stomach was removed and the rat was immediately euthanized by decapitation. The stomach was opened along the greater curvature and gastric fluid collected into Eppendorf tubes and centrifuged (5 min at 10×1000 g). pH was determined by pipetting gastric fluid directly onto an indicator stick (Whatman, Panpeha Plus, pH0-14). Data are represented as the mean volume and mean pH.
# Male, Sprague-Dawley rats (weighing between 254-270 g each and 6 rats per test group) were fasted overnight (24 hours) on wire inserts without bedding. The rats were first orally dosed with 0.5% MC vehicle and then subcutaneously injected with 3 mg/kg or 10 mg/kg of Compound A with a 25% HPBCD vehicle or with a 25% HPBCD vehicle alone. The test animals were water deprived for 3 hours and then anesthetized with isoflurane and the pylorus and cardia were tightly ligated. The stomachs were then removed and the rats were euthanized. The gastric fluid was removed from the stomachs and collected in eppendorf tubes by cutting along the greatest curvature and spun in a centrifuge. Gastric secretion data were analyzed by a one-way ANOVA using a Bonferroni Multiple Comparison test, where *P<0.05 and **P<0.01 as compared to the appropriate vehicle. Data are represented as the means+S.E.M. PH data were analyzed by a one-way ANOVA using Dunnett's Multiple Comparison Test. Data are represented as the means+S.E.M.
# This Example measured volume and pH of gastric secretion three hours post subcutaneous administration of 10 mg/kg of Compound A. The animals were water deprived during this time.
# [3] = assay type: in vivo, cynomolgus monkeys
# Protocol: Compound A (10-100 mg/kg) was administered orally to cynomolgus monkeys and blood specimens were collected prior to dose administration and at target time points of 0.5, 1, 3, 5, 8, and 24 hours post-dose administration. Blood was collected via the femoral vein into tubes containing tripotassium ethylene-diamine-tetraacetic acid (K3EDTA) as the anticoagulant. Whole blood was centrifuged to obtain plasma (9000×g for 10 minutes at 4° C.) which was transferred into labeled tubes and stored at −80° C. Plasma calibration standards, blanks, and study samples were processed by protein precipitation. To a 50 μL aliquot 150 μL of a 10 ng/mL solution of an internal standard and 150 μL of acetonitrile was added. The mixture was eluted using positive pressure and analyzed by liquid chromatography/mass spectrometry/mass spectrometry with m/z transition of 462-417. Compound A concentrations were calculated using area response ratios and a regression line constructed from the concentrations and peak area response ratios of the calibration standards. […]. The lower limit of quantification (LLOQ) for the plasma method is approximately 0.5 ng/mL and the upper limit of quantification (ULOQ) is approximately 1000 ng/mL extracted from plasma using a 50-μL aliquot of sample.
# As such, a pharmacokinetic and observational study was conducted in cynomologous monkeys (FIG. 16). Plasma concentrations of Compound A were measured following a single oral dose of 10, 50 and 100 mg/kg up to 24 hours post-dosing (FIGS. 16A, B and C).
# [4] = p.o. 100 mg/kg, 0.5% MC vehicle
# [5] = 30 mg/kg p.o. once a day, over 5 days
# [6] = p.o. 3, 10, 30 mg/kg once a day for 6 days, 0.5% MC
# [7] = Compound A 10 mg/kg s.c. alone, three hours post administration (Example 17)
# [8] = s.c. 3, 10 mg/kg, 25% HPBCD, 3 hours (Example 10)
smiles,measurement,setting,value
C[C@H](Nc1cc(C(N)=O)nc(-c2ccc(Oc3ccc(OC(F)(F)F)cc3)cc2)n1)C(N)=O [Compound A],% Gastric Emptying in 4 hours,CD1 mice; [4],inhibit gastric emptying
same,stomach weight,CD1 mice; [4],stomach weight increase
same,% Gastric Emptying in 4 hours,"CD1 mice; s.c. 3 mg/kg, 25% HPBCD vehicle",inhibit gastric emptying
same,body weight lost as a percentage of total body weight,Sprague-Dawley rats [1]; [5],2.6%
same,mean body weight loss,Sprague-Dawley rats [1]; [5],6.3 g
same,body weight,"Sprague-Dawley rats [1]; measured on day 5, p.o. 3, 10, 30 mg/kg once a day",decreased for all Compound A dosage levels
same,% Gastric Emptying in 4 hours,Sprague-Dawley rats [1]; [6],inhibited the percentage of gastric emptying
same,food intake,Sprague-Dawley rats [1]; [6],decrease in food intake
same,pH of gastric secretion,Sprague-Dawley rats [2]; [7],increase in gastric secretion and pH
same,volume of gastric secretion,Sprague-Dawley rats [2]; [7],increase in gastric secretion and pH
same,volume and pH of gastric secretion,Sprague-Dawley rats [2]; lansoprazole 30 mg/kg p.o. 30 minutes prior to Compound A 10 mg/kg s.c. (Example 17),not different from that achieved by Compound A alone
same,pH of gastric secretion,Sprague-Dawley rats [2]; [8],remains unaffected
same,volume of gastric secretion,Sprague-Dawley rats [2]; [8],increases with increasing dosages of Compound A
same,time up to which plasma concentration continued increasing,"[3]; monkey, p.o. 10 mg/kg",8 h
same,time up to which plasma concentration continued increasing,"[3]; monkey, p.o. 50 mg/kg and 100 mg/kg",24 h
same,plasma levels versus dose,"[3]; monkey, single oral dose of 10, 50 and 100 mg/kg",increased with increasing dose in an approximately linear fashion
same,plasma concentrations,"[3]; monkey, single oral dose of 10, 50 and 100 mg/kg, up to 24 hours",measurable at all doses
same,plasma level of the individual monkey presenting the highest plasma levels,"[3]; p.o., at 24 hrs",over 3000 ng/ml
